# Patent US20070149505A1, “Method of Inhibiting Adhesion Formation” (SmithKline Beecham Corporation, priority 2001, published 2007)
# Several values for one entry are separate records, joined by “and”; a condition that tells them apart may be missing. Identical values can stand only once.
# Tested on: uterine horn adhesions
# Assay: rabbit uterine horn model of adhesion formation, oral + local (gel) COMPOUND 1 study
# Assay type: in vivo, New Zealand White rabbits
# Parameters: key to tenacity of the adhesions score (in parentheses), Right Horn, Bowel / tenacity of the adhesions score (in parentheses), Right Horn, Itself / tenacity of the adhesions score (in parentheses), Left Horn, Itself / tenacity of the adhesions score (in parentheses), Right Horn, Left / tenacity of the adhesions score (in parentheses), Left Horn, Bowel / tenacity of the adhesions score (in parentheses), Left Horn, Right / tenacity of the adhesions score (in parentheses), Right Horn, Bladder / tenacity of the adhesions score (in parentheses), Left Horn, Bladder: 0=No Adhesions; 1=mild, easily dissectable adhesions; 2=moderate adhesions; non-dissectable, does not tear the organ; 3=dense adhesions; non-dissectable, tears organ when removed; key to Overall score: overall adhesion score; 1 = mild, 1.5+ slightly tougher/more extensive
# Details: for Overall, (group summary): group value ± spread, overall scores analyzed by rank order analysis
# Protocol: The compounds of the instant invention are tested in known models of adhesion formation. These test systems include a rabbit sidewall model of adhesion formation as described in Rogers, et al., J. Invest. Surg., 9:388-391 (1996) and Rodgers, et al., […], 69(3):403-408 (1998); a rat model for adhesion formation as described in Harris, et al., Surgery, 117:663-669 (1995); and a rabbit animal model used to examine laparoscopic adhesion prevention. The rabbit uterine horn model may also be used to test the use of the instant vitronectin inhibiting compounds as inhibitors of adhesion formation. The experimental details and results using this model are detailed below.
# Animals: New Zealand White rabbits, 2.4-2.7 kg, were purchased and quarantined for at least 2 days prior to use. The rabbits were randomized into appropriate control and treatment groups (see experimental designs below). The rabbits were housed on a 12:12 light:dark cycle with food and water available ad libitum. Each treatment group in all studies contained 8-10 animals.
# Adhesion Model: The animals that received COMPOUND 1 or vehicle according to the experimental design (below). The rabbits that received placebo at surgery received two doses of vehicle orally. Rabbits were anesthetized with a mixture of 55 mg/kg ketamine hydrochloride and 5 mg/kg Rompum intramuscularly. Following preparation for sterile surgery, a midline laparotomy was performed. The uterine horns were exteriorized and traumatized by abrasion of the serosal surface with gauze until punctate bleeding developed. Ischemia of both uterine horns was induced by removal of the collateral blood supply. The remaining blood supply to the uterine horns was the ascending branches of the utero-vaginal arterial supply of the myometrium. The midline muscle and skin incision were closed.
# After 7 or 14 days, the rabbits were terminated and adhesions were scored on a site and rabbit basis. Specifically, the percentage of the area of the horns adherent to various organs was determined. In addition, the tenacity of the adhesions was scored using the following system:
# 1=mild, easily dissectable adhesions
# 3=dense adhesions; non-dissectable, tears organ when removed
# An overall score which took into account all of the above data was given to each rabbit. The following scoring system was used:
# 0.5+ Light, filmy pelvic adhesions involving only one organ, typically only 1 or 2 small adhesions
# 1.0+ Light, filmy adhesions, not extensive although slightly more extensive than 0.5
# 1.5+ Adhesions slightly tougher and more extensive than a 1 rating
# 2.0+ Tougher adhesions, a little more extensive, uterine horns usually have adhesions to both bowel and bladder
# 2.5+ Same as 2, except the adhesions are usually not filmy at any site and more extensive
# 3.0+ Tougher adhesions than 2, more extensive, both horns are attached to the bowel and bladder, some movement of the uterus possible
# 3.5+ Same as 3, but adhesions slightly more extensive and tougher
# 4.0+ Severe adhesions, both horns attached to the bowel and bladder, unable to move the uterus without tearing the adhesions
# The rabbits were scored by two independent observers that were blinded to the prior treatment of the animal. If there was disagreement as to the score to be assigned to an individual animal, the higher score was given.
# Statistical Analysis: The tenacity and overall scores were analyzed by rank order analysis and analysis of variance on the ranks. The percentage area of the horns involved to the various organs were compared by Student's t test.
# […] received two loading doses of 60 mg/kg COMPOUND 1 orally prior to surgery. At the end of the procedure, the animals received either nothing (surgical control), or 12 ml of placebo (10% CMC) or one of two doses (1 mg/ml or 0.1 mg/ml) of COMPOUND 1 at the site of surgical injury.
# Oral+local study: Two loading doses of COMPOUND 1 (60 mg/kg, po) were administered orally prior to surgery. […]
# [1] = 0.1 mg/ml COMPOUND 1, 2 Week Necropsy Time (Table 4), group mean ± spread
# [2] = 0.1 mg/ml COMPOUND 1, 2 Week Necropsy Time (Table 4), individual rabbit
# [3] = 0.1 mg/ml COMPOUND 1, 2 Week Necropsy Time (Table 4), individual rabbit, dash = site adhesion free
# [4] = 0.1 mg/ml COMPOUND 1, 2 Week Necropsy Time (Table 8), group mean ± spread
# [5] = 0.1 mg/ml COMPOUND 1, 2 Week Necropsy Time (Table 8), individual rabbit
# [6] = 0.1 mg/ml COMPOUND 1, 2 Week Necropsy Time (Table 8), individual rabbit, dash = site adhesion free
# [7] = 0.1 mg/ml COMPOUND 1, listed after Control/Placebo 1 Week
structure (smiles),measurement,setting,value
"O=C(O)C[C@@H]1Cc2ccc(OCCCNc3ccccn3)cc2CN(CC(F)(F)F)C1=O [COMPOUND 1, (S)-3-oxo-8-[3-(pyridin-2-ylamino)-1-propyloxy]-2-(2,2,2-trifluoroethyl)-2,3,4,5-tetrahydro-1H-2-benzazepine-4-acetic acid]","% Horn Involved, Left Horn, Bladder",[1],7.0 ± 5.0%
same,"% Horn Involved, Left Horn, Bowel",[1],10.0 ± 4.2%
same,"% Horn Involved, Left Horn, Itself",[1],22.0 ± 3.6%
same,"% Horn Involved, Left Horn, Right",[1],21.0 ± 4.8%
same,"% Horn Involved, Right Horn, Bladder",[1],9.0 ± 4.8%
same,"% Horn Involved, Right Horn, Bowel",[1],10.0 ± 4.2%
same,"% Horn Involved, Right Horn, Itself",[1],16.0 ± 5.0%
same,"% Horn Involved, Right Horn, Left",[1],21.0 ± 4.8%
same,"Overall, (group summary)","0.1 mg/ml COMPOUND 1, 2 Week Necropsy Time (Table 4)",30.2 ± 6.2
same,Overall score,[2],1.5 (3×) and 2.0 (2×) and 1.0 (2×) and 0.5 and 2.5 (2×)
same,"tenacity of the adhesions score (in parentheses), Left Horn, Bladder",[2],1
same,"tenacity of the adhesions score (in parentheses), Left Horn, Bowel",[2],1
same,"tenacity of the adhesions score (in parentheses), Left Horn, Itself",[2],1 (7×) and 2 (2×)
same,"tenacity of the adhesions score (in parentheses), Left Horn, Right",[2],1 (6×) and 2 (2×)
same,"tenacity of the adhesions score (in parentheses), Right Horn, Bladder",[2],1
same,"tenacity of the adhesions score (in parentheses), Right Horn, Bowel",[2],1
same,"tenacity of the adhesions score (in parentheses), Right Horn, Itself",[2],1 (4×) and 2 (2×)
same,"tenacity of the adhesions score (in parentheses), Right Horn, Left",[2],1 (6×) and 2 (2×)
same,"% Horn Involved, Left Horn, Bladder",[3],10% (2×) and 50%
same,"% Horn Involved, Left Horn, Bowel",[3],10% (2×) and 20% (2×) and 40%
same,"% Horn Involved, Left Horn, Itself",[3],40% and 30% (3×) and 20% (4×) and 10%
same,"% Horn Involved, Left Horn, Right",[3],30% (3×) and 40% (2×) and 20% and 10% (2×)
same,"% Horn Involved, Right Horn, Bladder",[3],10% (4×) and 50%
same,"% Horn Involved, Right Horn, Bowel",[3],10% (2×) and 20% (2×) and 40%
same,"% Horn Involved, Right Horn, Itself",[3],40% and 30% (3×) and 10% and 20%
same,"% Horn Involved, Right Horn, Left",[3],30% (3×) and 40% (2×) and 20% and 10% (2×)
same,"% Horn Involved, Left Horn, Bladder",[4],7.0 ± 3.4%
same,"% Horn Involved, Left Horn, Bowel",[4],15.0 ± 5.0%
same,"% Horn Involved, Left Horn, Itself",[4],23.0 ± 5.6%
same,"% Horn Involved, Left Horn, Right",[4],15.0 ± 4.8%
same,"% Horn Involved, Right Horn, Bladder",[4],7.0 ± 3.4%
same,"% Horn Involved, Right Horn, Bowel",[4],13.0 ± 4.7%
same,"% Horn Involved, Right Horn, Itself",[4],11.0 ± 3.5%
same,"% Horn Involved, Right Horn, Left",[4],15.0 ± 4.8%
same,"Overall, (group summary)","0.1 mg/ml COMPOUND 1, 2 Week Necropsy Time (Table 8)",22.0 ± 4.8
same,Overall score,[5],2.0 (2×) and 1.5 (4×) and 1.0 (2×) and 0.5 (2×)
same,"tenacity of the adhesions score (in parentheses), Left Horn, Bladder",[5],1
same,"tenacity of the adhesions score (in parentheses), Left Horn, Bowel",[5],1
same,"tenacity of the adhesions score (in parentheses), Left Horn, Itself",[5],1
same,"tenacity of the adhesions score (in parentheses), Left Horn, Right",[5],1
same,"tenacity of the adhesions score (in parentheses), Right Horn, Bladder",[5],1
same,"tenacity of the adhesions score (in parentheses), Right Horn, Bowel",[5],1
same,"tenacity of the adhesions score (in parentheses), Right Horn, Itself",[5],1
same,"tenacity of the adhesions score (in parentheses), Right Horn, Left",[5],1
same,"% Horn Involved, Left Horn, Bladder",[6],30% and 10% (2×) and 20%
same,"% Horn Involved, Left Horn, Bowel",[6],40% and 30% (3×) and 10% (2×)
same,"% Horn Involved, Left Horn, Itself",[6],30% (4×) and 50% and 20% and 40%
same,"% Horn Involved, Left Horn, Right",[6],10% and 40% and 30% (2×) and 20% (2×)
same,"% Horn Involved, Right Horn, Bladder",[6],30% and 10% (2×) and 20%
same,"% Horn Involved, Right Horn, Bowel",[6],40% and 30% (2×) and 10% (3×)
same,"% Horn Involved, Right Horn, Itself",[6],30% (2×) and 10% (5×)
same,"% Horn Involved, Right Horn, Left",[6],10% and 40% and 30% (2×) and 20% (2×)
same,# Sites Adhesion Free,[7],34
same,% Sites Adhesion Free,[7],42.5%
same,# Sites Adhesion Free,"0.1 mg/ml COMPOUND 1, listed after Control/Placebo 2 Weeks",31
